US4325947A (priority 1981, dated 1982)
≈ marks a conversion by molar mass, not a printed value. Where “and” joins values, the source holds several entries; their conditions need not be identical. Equal entries are not always repeated. Where two headings read alike, the source gives them in different places.

How the values were obtained:
L1210 leukemia = tested on: L1210 leukemia
Text: (§1) ^3 Medium survival time of treated animals/medium survival time of […]

Gross leukemia = experiment: Activity against disseminated Gross leukemia in mice, i.v. and oral; conditions: for T/C % (survival time treated/controls × 100) / Toxic deaths: day 1
Text: as §1

HeLa cells = HeLa cells cloning efficiency in vitro, treatment for 24 hours; conditions: for IC50: read-out: ID50
P388 ascitic leukemia = experiment: Activity against P388 ascitic leukemia in mice, ip
Experimental: Activity against P388 ascitic leukemia^1
^1 Mice were injected ip with 10^6 leukemia cells/mouse. Data of
^2 Treatment ip on day 1 after tumor inoculum.
as §1

experimental leukemias = experiment: In vivo antitumor activity/potency versus doxorubicin (general statements); set-up: species or system mice
Text: In vivo the compound has been compared to doxorubicin against three different experimental leukemias of mice.

[1] = Homo sapiens, HeLa, 24 h, read-out: % of controls (HeLa cells cloning efficiency)

## COc1cccc2c1C(=O)c1c(O)c3c(c(O)c1C2=O)C[C@@](O)(C(=O)CO)C[C@@H]3O[C@H]1C[C@H](N)[C@H](O)[C@H](C)O1 [Doxorubicin, doxorubicin, reference compound]
L1210 leukemia; 10 mg/kg iv on day 1
  T/C % (survival time treated/controls × 100): 133%
  Toxic deaths: 0/10
L1210 leukemia; 13 mg/kg iv on day 1
  T/C % (survival time treated/controls × 100): 150%
  Toxic deaths: 0/9
L1210 leukemia; 16.9 mg/kg iv on day 1
  T/C % (survival time treated/controls × 100): 166%
  Toxic deaths: 1/10
Gross leukemia; i.v. 13 mg/kg
  T/C % (survival time treated/controls × 100): 200%
  Toxic deaths: 0/18
Gross leukemia; i.v. 16.9 mg/kg
  Toxic deaths: 0/18
Gross leukemia; i.v. 16.9 mg/kg, 16.9 mg/kg
  T/C % (survival time treated/controls × 100): 233% and 216%
HeLa cells; [1]
  activity at 0.0031 µg/mL: 102%
  activity at 0.0062 µg/mL: 68%
  activity at 0.0125 µg/mL: 44%
HeLa cells; Homo sapiens, HeLa, 24 h
  IC50: ~10 ng/mL (≈ 18.4 nM)
P388 ascitic leukemia; 4.4 mg/kg ip on day 1
  T/C % (survival time treated/controls × 100): 210% and 180%
  Toxic deaths: 0/16
P388 ascitic leukemia; 6.6 mg/kg ip on day 1
  T/C % (survival time treated/controls × 100): 220% and 190%
  Toxic deaths: 0/16
P388 ascitic leukemia; 10.0 mg/kg ip on day 1
  T/C % (survival time treated/controls × 100): 225% and 220%
  Toxic deaths: 0/16

## C[C@H]1C[C@@H](N)C[C@H](O[C@H]2C[C@](O)(C(=O)CO)Cc3c(O)c4c(c(O)c32)C(=O)c2ccccc2C4=O)O1 [XOO-0144, 4-demethoxy-4'-deoxydoxorubicin]
L1210 leukemia; 0.9 mg/kg iv on day 1
  T/C % (survival time treated/controls × 100): 183%
  Toxic deaths: 0/10
L1210 leukemia; 1.2 mg/kg iv on day 1
  T/C % (survival time treated/controls × 100): 191%
  Toxic deaths: 0/10
L1210 leukemia; 1.56 mg/kg iv on day 1
  T/C % (survival time treated/controls × 100): 116%
  Toxic deaths: 6/10
L1210 leukemia; in comparison with doxorubicin
  activity against L1210 leukemia in comparison with doxorubicin (summary, words): more active against L1210 leukemia
L1210 leukemia; iv
  tolerated doses: 0.9 mg/kg and 1.2 mg/kg
L1210 leukemia; iv, tolerated doses 0.9 and 1.2 mg/kg vs doxorubicin 13 mg/kg
  effectiveness compared with doxorubicin: more effective than doxorubicin
Gross leukemia; i.v. 0.35 mg/kg
  T/C % (survival time treated/controls × 100): 100%
  Toxic deaths: 0/8
Gross leukemia; i.v. 0.53 mg/kg
  T/C % (survival time treated/controls × 100): 108%
  Toxic deaths: 0/8
Gross leukemia; i.v. 0.8 mg/kg
  T/C % (survival time treated/controls × 100): 116%
  Toxic deaths: 0/10
Gross leukemia; i.v. 1.2 mg/kg
  Toxic deaths: 0/20
Gross leukemia; i.v. 1.2 mg/kg, 1.2 mg/kg
  T/C % (survival time treated/controls × 100): 150% and 208%
Gross leukemia; i.v. 1.8 mg/kg
  T/C % (survival time treated/controls × 100): 133%
  Toxic deaths: 9/10
Gross leukemia; i.v. 2.7 mg/kg
  T/C % (survival time treated/controls × 100): 116%
  Toxic deaths: 10/10
Gross leukemia; oral 2.7 mg/kg
  T/C % (survival time treated/controls × 100): 150%
  Toxic deaths: 1/8
Gross leukemia; oral 5.4 mg/kg
  T/C % (survival time treated/controls × 100): 133%
  Toxic deaths: 4/6
Gross leukemia; oral 10.8 mg/kg
  T/C % (survival time treated/controls × 100): 100%
  Toxic deaths: 5/5
Gross leukemia; oral, Gross leukemia
  activity by oral route: active also when given by oral route
HeLa cells; HeLa cells cloning efficiency, more cytotoxic than doxorubicin
  cytotoxicity relative to doxorubicin: about 25 times
HeLa cells; [1]
  activity at 20 pg/mL: 102%
  activity at 90 pg/mL: 72%
  activity at 0.00039 µg/mL: 69%
  activity at 0.0015 µg/mL: 26%
  activity at 0.0062 µg/mL: 1%
  activity at 0.025 µg/mL: 0%
HeLa cells; Homo sapiens, HeLa, 24 h
  IC50: ~0.4 ng/mL (≈ 0.804 nM)
HeLa cells; in comparison with doxorubicin
  potency in vitro in comparison with doxorubicin (summary, words): more potent in vitro
HeLa cells; in vitro, with reference to doxorubicin
  potency in vitro relative to doxorubicin: 10-20 times
P388 ascitic leukemia; 0.04 mg/kg ip on day 1
  T/C % (survival time treated/controls × 100): 130%
P388 ascitic leukemia; 0.12 mg/kg ip on day 1
  T/C % (survival time treated/controls × 100): 170%
P388 ascitic leukemia; 0.25 mg/kg ip on day 1
  T/C % (survival time treated/controls × 100): 205% and 195%
P388 ascitic leukemia; 0.5 mg/kg ip on day 1
  T/C % (survival time treated/controls × 100): 235%
P388 ascitic leukemia; 1 mg/kg ip on day 1
  T/C % (survival time treated/controls × 100): 75% and 90%
  Toxic deaths: 7/16
P388 ascitic leukemia; 5 mg/kg ip on day 1
  T/C % (survival time treated/controls × 100): 55%
  Toxic deaths: 8/8
P388 ascitic leukemia; administered ip
  optimal doses: 0.25 to 0.5 mg/kg
P388 ascitic leukemia; administered ip, mice bearing P388 ascitic leukemia
  potency relative to doxorubicin, ip: 10-20 times
P388 ascitic leukemia; ip, 0.25-0.5 mg/kg vs doxorubicin from 4 to 10 mg/kg
  antitumor activity compared with doxorubicin: antitumor activity of the same order of magnitude as that of doxorubicin
Experimental leukemias; administered iv
  potency relative to doxorubicin, iv: about 10 times
Experimental leukemias; both i.p. and i.v. administration
  potency in vivo in comparison with doxorubicin (summary, words): more potent in vivo (both i.p. and i.v. administration)
Experimental leukemias; in vivo, with reference to doxorubicin
  potency in vivo relative to doxorubicin: about 10 times
Experimental leukemias
  activity by oral route: active also when administered orally
Experimental leukemias; listed as 4-demethoxy-4'-deoxydoxorubicin
  activity by oral route: active also when given by oral route
